Patent USRE46943E1, “Radioprotector compounds and methods” (PETER MACCALLUM CANCER INSTITUTE, priority 2010, dated 2018)

Key:
[1] = test system: transformed human keratinocyte cell line (FEP 1811); test: Clonogenic survival cell culture assay for radioprotective activity (12 Gy 137Cs gamma irradiation); assay type: cell-based; conditions: 12 Gy; for DMF10 (dose modification factor at a concentration of 10 microM of radioprotector): 10 microM radioprotector; for DMFm (dose modification factor at maximum protection): DMF=Dp/Dc at survival level Sm; for PF (protection factor = Sm/So): survival at maximum protection vs irradiation only
Summary of the method: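 Survival after irradiation gave protection factor PF = Sm/So (maximum-protection survival over irradiation-only survival). DMF = Dp/Dc is the ratio of doses giving survival Sm with and without radioprotector. DMF10 uses survival at 10 microM radioprotector in place of Sm.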

mice = test: Radioprotection of mouse jejunum, subcutaneous administration: local reaction at injection site; assay type: in vivo
Description: 2-Hydroxypropyl-β-cyclodextrin (HPCD, Sigma-Aldrich, typical MW 1540) vehicle solution was prepared by dissolving 3.6 g of HPCD in 9.3 mL of phosphate buffered saline (PBS) resulting in 30% v/w solution. […] The concentration of M2PB was measured following appropriate dilution in 45% MeOH 0.1% TFA using an extinction coefficient […] at 345 nm. The M2PB/HPCD stock was diluted to 8.75 mg/mL (22 mM) in HPCD vehicle to produce the final M2PB/HPCD formulation, which was injected subcutaneously into mice, between the shoulder blades (scruff of the neck) at a volume of 8×10^−3 ml/g body weight.
The subsequent irradiation and analysis was as described for Example 56.

[2] = test system: mouse jejunum crypt clonogens; test: Radioprotection of mouse jejunum by intravenous 2PH (surviving crypt clonogens); assay type: in vivo, C3H/HeJ mice
Description: C3H/HeJ mice were administered 2PH by intravenous (tail vein) injection (30 mM solution in acetate-buffered saline, pH5; 150 mg/kg) 2 hours prior to whole body irradiation (up to 19 Gy) with ^137Cs γ-rays (GammaCell 40 Irradiator, Nordion International Inc., Canada) at a dose rate of 0.73 Gy/min, in groups of 5. The mice were euthanised 3 days 14 hours post-irradiation and the jejunum excised. Five 1 cm jejunum sections were taken from each mouse and bundled with micropore tape before being fixed in neutral buffered formalin. Samples are then paraffin embedded, sectioned and stained with Hematoxylin-Eosin. The densely stained colonies (>10 cells) arising from proliferation of surviving crypt clonogens were counted and scored on the basis of colonies per circumference.
The data for each of the two experimental groups was fitted to the expression: N(D)=N0(1−e^−Se^−αD) Where: • N0 is the initial number of clonogens per circumference, • N(D) the number of surviving clonogens per circumference after a radiation dose of D Gy, • S is the number of clonogens per crypt, and • α is the reciprocal of radiation dose corresponding to a lethal event.

[3] = subcutaneous solutions in polyethylene glycol (MW 400), similar experiments with the jejunum model

Structure (SMILES): OC1CCN(c2ccc3nc(-c4ccc5nc(-c6cc7ccccc7cn6)[nH]c5c4)[nH]c3c2)CC1 [Example 23, 3-(5′-(5″-(4′″-Hydroxypiperidin-1′″-yl)benzimidazol-2″-yl)benzimidazol-2′-yl)isoquinoline]
- melting point: 222 °C (dec.)
- DMF10 (dose modification factor at a concentration of 10 microM of radioprotector) [1]: 2.13
- DMFm (dose modification factor at maximum protection) [1]: 2.26
- PF (protection factor = Sm/So) [1]: 36.5

Structure (SMILES): Cc1ccc(-c2nc3ccc(-c4nc5ccc(N6CCN(C)CC6)cc5[nH]4)cc3[nH]2)nc1 [Example 6, 5-Methyl-2-(5′-(5″-(4′″-methylpiperazin-1′″-yl)benzimidazol-2″-yl)benzimidazol-2′-yl)pyridine]
- melting point: 200 to 204 °C
- DMF10 (dose modification factor at a concentration of 10 microM of radioprotector) [1]: 2.43
- DMFm (dose modification factor at maximum protection) [1]: 2.52
- PF (protection factor = Sm/So) [1]: 26.2

Structure (SMILES): CN1CCN(c2ccc3nc(-c4ccc5nc(-c6ccccn6)[nH]c5c4)[nH]c3c2)CC1 [Example 2, 2-(5′-(5″-(4′″-Methylpiperazin-1′″-yl)benzimidazol-2″-yl)benzimidazol-2′-yl)pyridine]
- local reaction or toxicity at the site of subcutaneous injection (mice; [3]): had been observed
- DMF10 (dose modification factor at a concentration of 10 microM of radioprotector) [1]: 1.93
- DMFm (dose modification factor at maximum protection) [1]: 2.10
- PF (protection factor = Sm/So) [1]: 18.2
- α (reciprocal of radiation dose corresponding to a lethal event), derived by curve-fitting ([2]; 150 mg/kg intravenous 2 hours prior to whole body irradiation, control 0.529+/−0.048): 0.431+/−0.039 Gy−1
- dose modification factor ([2]; 150 mg/kg intravenous, from α control and α 2PH): 1.23+/−0.15

Structure (SMILES): c1ccc(-c2nc3ccc(-c4nc5ccc(N6CCOCC6)cc5[nH]4)cc3[nH]2)nc1 [Example 19, 2-(5′-(5″-Morpholinobenzimidazol-2″-yl)benzimidazol-2′-yl)pyridine]
- local reaction or toxicity at the site of subcutaneous injection (mice; M2PB/HPCD formulation (complex with 2-hydroxypropyl-β-cyclodextrin), 8.75 mg/mL subcutaneous): no indication of local reaction or toxicity
- local reaction or toxicity at the site of subcutaneous injection (mice; [3]): had been observed
- DMF10 (dose modification factor at a concentration of 10 microM of radioprotector) [1]: 1.66
- DMFm (dose modification factor at maximum protection) [1]: 2.26
- PF (protection factor = Sm/So) [1]: 69.6
